Measurements from US20150038545A1, “HYDROXYPHENYL PYRROLE COMPOUNDS CONTAINING AN HYDROXAMIC ACID AS HDAC INHIBITORS AND MEDICINAL APPLICATIONS THEREOF” (UNIVERSIDAD DEL PAÍS VASCO, priority 2011, published 2015).

Experiments:
Human HDAC7 = biological target: T1, Human HDAC7 (Homo sapiens, UniProt Q8WUI4); assay: In vitro HDAC7 inhibition, fluorogenic peptide assay; type: biochemical; settings: for IC50: read-out: IC50 (nM) of enzyme activity HDAC7
T1 construct: Amino acids 518-end with N-terminal GST tag, MW=78 kDa; GST (N); purchased BioMol, Hamburg, Germany
T1 sequence (Q8WUI4 518-952 limits assumed): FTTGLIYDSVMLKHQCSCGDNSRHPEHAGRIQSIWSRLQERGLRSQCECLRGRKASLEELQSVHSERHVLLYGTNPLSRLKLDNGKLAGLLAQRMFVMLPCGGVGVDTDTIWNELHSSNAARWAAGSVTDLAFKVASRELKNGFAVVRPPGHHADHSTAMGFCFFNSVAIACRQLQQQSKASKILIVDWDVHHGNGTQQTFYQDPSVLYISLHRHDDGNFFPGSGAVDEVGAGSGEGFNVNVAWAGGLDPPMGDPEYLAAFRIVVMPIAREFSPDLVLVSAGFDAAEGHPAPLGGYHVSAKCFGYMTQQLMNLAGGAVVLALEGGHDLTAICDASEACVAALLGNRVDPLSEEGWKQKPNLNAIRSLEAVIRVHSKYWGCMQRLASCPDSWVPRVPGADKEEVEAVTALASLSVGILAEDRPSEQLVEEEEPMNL
Experimental: All HDAC assays were performed using acetylated AMC-labeled peptide substrate: • Substrate for isoforms HDAC1, 2, 3, 4, 5, 6, 7, 9, 10, 11 and HeLa nuclear extract assays: Acetylated fluorogenic peptide from p53 residues 379-382 (RHKKAc) (BioMol. Cat. # KI-104). • Substrate for HDAC8 assays: Acetylated fluorogenic peptide from p53 residues 379-382 (RHKAcKAc) (BioMol. Cat. # KI-178).
Enzymes: • HDAC1 assay: 75 nM Human HDAC1 (GenBank Accession No. NM_004964): Full length with C-terminal GST tag, MW=79.9 kDa, expressed by baculovirus expression system in Sf9 cells (BioMol. Cat. # SE-456). • HDAC2 assay: 5 nM Human HDAC2 (GenBank Accession No. Q92769): Full length with C-terminal His tag, MW=60 kDa, expressed by baculovirus expression system in Sf9 cells (BioMol. Cat. # SE-500). • HDAC3 assay: 2.3 nM Human HDAC3/NcoR2 (GenBank Accession No. NM_003883 for HDAC3, GenBank Accession No.NM_006312 for NcoR2): Complex of human HDAC3, full length with C-terminal His tag, MW=49.7 kDa, and human NCOR2, N-terminal GST tag, MW=39 kDa, co-expressed in baculovirus expression system (BioMol. Cat. # SE-507). • HDAC4 assay: 266 nM Human HDAC4 (GenBank Accession No. NM_006037): Amino acids 627-1085 with N-terminal GST tag, MW=75.2 kDa, expressed in baculovirus expression system (BioMol, Hamburg, Germany). • HDAC5 assay: 588 nM Human HDAC5 (GenBank Accession No. NM_001015053): Full length with Nterminal GST tag, MW=150 kDa, expressed by baculovirus expression system in Sf9 cells (BioMol, Hamburg, Germany). • HDAC6 assay: 13 nM Human HDAC6 (GenBank Accession No. BC069243): Full length with N-terminal GST tag, MW=159 kDa, expressed by baculovirus expression system in Sf9 cells (BioMol. Cat. # SE-508). • HDAC7 assay: 962 nM Human HDAC7 (GenBank Accession No. AY302468): Amino acids 518-end with N-terminal GST tag, MW=78 kDa, expressed in baculovirus expression system (BioMol, Hamburg, Germany). • HDAC8 assay: 119 nM Human HDAC8 (GenBank Accession No. NM018486): Full length, MW=42 kDa, expressed in an E. coli expression system (BioMol. […]
The reactions were carried out in a 96-well microplate for fluorometry in a 50 μl reaction volume. […] The reaction was allowed to develop for 45 minutes at 30° C. with 5% CO2; then the fluorescent signal was measured with an excitation wavelength at 360 nm and an emission wavelength at 460 nm in a microplate-reading fluorometer (GeminiXS; Molecular Devices, Sunnyvale, Calif.). […] IC50 was calculated by fitting the experimental data to a dose-response curve. […]

PANC-1 = assay: Cancer cell growth inhibition (CellTiter-Glo), PANC-1; type: cell-based, Human; settings: Homo sapiens; Pancreatic Cancer, PANC-1, 72 h treatment
Experimental: Cell culture-based assays were used to evaluate the ability of compounds of the invention to inhibit cancer cell growth.
Cells were obtained from the American Type Culture Collection (ATCC). Cells were cultured at 37° C. with 5% CO2 in the appropriate growth medium (see table below), and harvested respectively during the logarithmic growth period and counted with hemocytometer. The cell viability was examined by trypan blue exclusion. Cell concentrations were adjusted to 5.56×10^4 cells/ml with respective medium.
Stock solutions of test compounds and positive drugs Doxorubicin (Zhejiang, Haizheng, China), Cisplatin (Nanjing Zhiyao, China) and Mitomycin (Zhejiang, Haizheng, China) were prepared in dimethyl sulphoxide (DMSO) or PBS at 20 mM.
In order to determine the IC50 for each compound, experiments were carried out in 96-well plates and the cell lines seeded at a density of 5,000 cells/well. […] All treatments were performed in triplicate. 10 μl of drug solution was added to each well and incubated for 72 hours. At the end of the incubation, 100 μl of the CellTiter-Glo Reagent were added to each well and the contents were mixed for 2 munites on an orbital shaker to induce cell lysis. The plate was incubated at room temperature for 10 minutes to stabilize luminiscent signal, and luminiscent was recorded. […] In order to calculate IC50 values, dose-responsive curves were fitted using nonlinear regression model with a sigmoidal dose response.

## COc1ccc(-c2cc(-c3ccccc3)[nH]c2C(=O)NCCCCCC(=O)NO)cc1 [Compound A, N-[6-(hydroxyamino)-6-oxohexyl]-3-(4-methoxyphenyl)-5-phenyl-1H-pyrrole-2-carboxamide, reference compound]
Human HDAC7; IC50 HDAC7/IC50 HDAC6
  Selectivity against HDAC6 (IC50 HDACx/IC50 HDAC6) HDAC7: 70.3
Human HDAC7
  IC50: 1410 nM

## O=C(CCCCCNC(=O)c1[nH]c(-c2ccc(O)cc2)cc1-c1ccsc1)NO [Example 6, N-(5-(hydroxycarbamoyl)pentyl)-5-(4-hydroxyphenyl)-3-(3-thienyl)-1H-pyrrole-2-carboxamide]
Human HDAC7
  IC50: 318 nM
PANC-1
  IC50: 22.2 µM

## O=C(CCCCCNC(=O)c1[nH]c(-c2ccccc2)cc1-c1ccc(O)cc1)NO [Example 1, N-(6-(hydroxyamino)-6-oxohexyl)-3-(4-hydroxyphenyl)-5-phenyl-1H-pyrrole-2-carboxamide]
PANC-1
  IC50: 6.04 µM

## O=C(CCCCCNC(=O)c1[nH]c(-c2ccc(O)cc2)cc1-c1ccccc1)NO [Example 2, N-(6-(hydroxyamino)-6-oxohexyl)-5-(4-hydroxyphenyl)-3-phenyl-1H-pyrrole-2-carboxamide]
PANC-1
  IC50: 27.7 µM

## O=C(CCCCCNC(=O)c1[nH]c(-c2ccc(O)cc2)cc1-c1ccoc1)NO [Example 5, 3-(3-furyl)-N-(5-(hydroxycarbamoyl)pentyl)-5-(4-hydroxy-phenyl)-1H-pyrrole-2-carboxamide]
Human HDAC7
  IC50: 72 nM
PANC-1
  IC50: 29.2 µM
